Reference: ChEMBL document CHEMBL1157037, “Synthesis and in vitro antiproliferative activities of quinoline derivatives” (Eur J Med Chem, 2010)

Experiments:
Assay type in all cases: functional, cell-based
PA-1 = experiment: Antiproliferative activity against human PA1 cells after 48 hrs by resazurin reduction assay; conditions: PA-1, 48 h
MCF7 = experiment: Antiproliferative activity against human MCF7 cells after 48 hrs by resazurin reduction assay; conditions: MCF7, 48 h
[1] = Antiproliferative activity against human fibroblast cells after 48 hrs by resazurin reduction assay

Row | IC50 (MCF7) [µM] | SMILES | IC50 (PA-1) [µM] | IC50 [1] [µM]
1 | > 100 | COc1ccc2ccc(-c3cc4ccccc4nc3OC)cc2n1 | 36 | 54
2 | > 100 | CCOc1ccc2ccc(-c3cc4ccccc4nc3OCC)cc2n1 | 37 | 37
3 | > 100 | CCOc1ccc2ccc(-c3cc4ccc(-c5cc6ccccc6nc5OCC)cc4nc3OCC)cc2n1 | 50 | > 100
